Here are results for 14 molecules from ChEMBL document CHEMBL1201862, “PubChem BioAssay data set” (2004).

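Following 48 hours of exposure in 96-well plates, responses at five concentrations were used to interpolate endpoints linearly. Here, GI50 denotes the concentration required for 50% inhibition of growth.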 Activity calls are given as the source filed them. No stated cut-off is given here; in the data, active = GI50 up to about 1.1 µM and inactive = higher.

Test systems include KM-20L2; SNB-78; XF498; M19-MEL; RXF 631; HOP-18; DMS-114; LXFL 529.
What all share (assay): NCI tumour cell line growth inhibition, 48 h

Take `C/C(=N\NC(N)=S)c1ccc2c(c1)OCO2`: the GI50 with KM-20L2, in the test on SNB-78, in the test with XF498, with M19-MEL, in the test on RXF 631 and in the test with HOP-18 was > 100 µM (inactive) in each case. Moreover, the GI50 with DMS-114 was 94.8 µM (inactive); with LXFL 529, > 100 µM (inactive).

On to `COC(=O)C1=C(C(=O)OC)C2(C3C(SC)=CC(C)(C)CC3S1)N(Cc1ccccc1)CCN2Cc1ccccc1` (stereo unspecified), for which the GI50 in the test on KM-20L2, in the test with SNB-78, in the test on XF498, with M19-MEL, with RXF 631 and with HOP-18 was > 100 µM (inactive) throughout. For the same molecule, the GI50 in the test on DMS-114 and in the test on LXFL 529 was > 100 µM (inactive) in each case.

As to `CC1=CC=NN2C(=O)[C@H](C)C2C1` (stereo partly specified), the GI50 in the test with KM-20L2, in the test with SNB-78, with XF498, in the test on M19-MEL, in the test on RXF 631 and in the test with HOP-18 was > 100 µM (inactive) throughout. Further, the GI50 in the test with DMS-114 and in the test on LXFL 529 was > 100 µM (inactive) each time.

For the molecule `CCCCCCCCCCCC(=O)C1=C(O)CC(O)CC1=O` (stereo unspecified), the GI50 with KM-20L2, in the test with SNB-78, in the test on XF498, in the test with M19-MEL, with RXF 631 and in the test with HOP-18 was > 100 µM (inactive) each time. The GI50 with DMS-114 is 64.3 µM (inactive); in the test with LXFL 529, 83.6 µM (inactive).

Regarding `CC(=O)c1c2c(cc3c1CC1(C3)Cc3cc4c(c(C(C)=O)c3C1)CCC4)CCC2`, the GI50 with SNB-78, in the test on XF498, with M19-MEL, with RXF 631, in the test with HOP-18 and in the test with DMS-114 was > 100 µM (inactive) throughout. Besides, the GI50 in the test with LXFL 529 was > 100 µM (inactive).

For `O=c1cc2ccccc2nn1Cc1cccc(Cl)c1`, the GI50 with KM-20L2 was > 100 µM (inactive); in the test with SNB-78, > 100 µM (inactive); in the test with XF498 it was 18.8 µM (inactive); in the test with M19-MEL, > 100 µM (inactive); in the test on RXF 631 it was > 100 µM (inactive); with HOP-18, > 100 µM (inactive). The GI50 in the test on DMS-114 is 66.4 µM (inactive).

For the molecule `CCN(CC)CCCC(C)Nc1c(Sc2cnc3cc(Cl)ccc3c2NC(C)CCCN(CC)CC)cnc2cc(Cl)ccc12` (stereo unspecified), the GI50 with KM-20L2 was 1.66 µM (inactive); with SNB-78, 2.73 µM (inactive); with M19-MEL, 1.62 µM (inactive); with RXF 631, 2.08 µM (inactive); with HOP-18 it was 2.17 µM (inactive); in the test with LXFL 529, 1.92 µM (inactive).

Turning to `CCOC(=O)C1C(=S)NC(=O)C1C#N` (stereo unspecified), the GI50 with KM-20L2, in the test with M19-MEL, in the test with RXF 631, in the test on HOP-18, with DMS-114 and with LXFL 529 was > 100 µM (inactive) throughout.

Take `CNCCCCN(C)/[N+]([O-])=N\O`: the GI50 in the test on KM-20L2, with SNB-78, in the test with M19-MEL, with RXF 631, with HOP-18 and in the test on DMS-114 was > 100 µM (inactive) throughout. In addition, the GI50 in the test on LXFL 529 is > 100 µM (inactive).

Take `CNC(=O)OCc1nc(SSc2nc(COC(=O)NC)c(COC(=O)NC)n2C)n(C)c1COC(=O)NC`: the GI50 in the test on KM-20L2, with SNB-78, in the test on XF498, in the test with M19-MEL, in the test with RXF 631 and with HOP-18 was > 100 µM (inactive) throughout. Besides, the GI50 in the test on DMS-114 and in the test with LXFL 529 was > 100 µM (inactive) throughout.

Take `Cc1ccc(S(=O)(=O)C(CC(=O)N2CCCC2)C(=O)c2ccccc2)cc1` (stereo unspecified): the GI50 in the test on SNB-78 is 54.6 µM (inactive); in the test on XF498, > 100 µM (inactive); in the test on RXF 631, > 100 µM (inactive); in the test with HOP-18, > 100 µM (inactive); in the test with DMS-114 it was > 100 µM (inactive); in the test with LXFL 529, 38.5 µM (inactive).

On to `O=C(Nc1c(O)[nH]c(=S)[nH]c1=O)c1ccccn1`, for which the GI50 in the test on KM-20L2, in the test on SNB-78, with M19-MEL, in the test on RXF 631, in the test on HOP-18 and in the test with DMS-114 was > 100 µM (inactive) throughout. Besides, the GI50 in the test with LXFL 529 was > 100 µM (inactive).

`CC(C)(C)c1cc2nc(c1)C(C(F)(F)F)(C(F)(F)F)OB(Br)OC2(C(F)(F)F)C(F)(F)F`: the GI50 in the test on KM-20L2 was < 0.01 µM (active); with SNB-78, 0.12 µM (active); in the test on XF498 it was 1.04 µM (active); in the test with M19-MEL, 0.0268 µM (active); in the test with RXF 631 it was 0.0836 µM (active); in the test with HOP-18, < 0.01 µM (active). In addition, the GI50 in the test on DMS-114 was < 0.01 µM (active); in the test with LXFL 529, 0.261 µM (active).

On to `CSc1c(C)c(C)nn1-c1ccccc1`, for which the GI50 in the test on KM-20L2 is > 100 µM (inactive); in the test on SNB-78 it was > 100 µM (inactive); with XF498, 59.8 µM (inactive); in the test on RXF 631, > 100 µM (inactive); with HOP-18, < 0.01 µM (active); in the test with DMS-114, > 100 µM (inactive). Moreover, in the test with LXFL 529, the GI50 is > 100 µM (inactive).
